Test results published in patent US20260273110A1, “Radiolabeled Fibroblast Activation Protein Inhibitors and Methods of Making Same” (REGENTS OF THE UNIVERSITY OF MICHIGAN, priority 2023, published 2026).
Read-outs that look alike come from different tables or passages of the source.

Tests used:
[1] = target: T1, FAP (Homo sapiens, UniProt Q12884); conditions: cited from earlier work; for tumor to kidney ratio: [^177Lu] agent
T1 sequence (Q12884 1-760): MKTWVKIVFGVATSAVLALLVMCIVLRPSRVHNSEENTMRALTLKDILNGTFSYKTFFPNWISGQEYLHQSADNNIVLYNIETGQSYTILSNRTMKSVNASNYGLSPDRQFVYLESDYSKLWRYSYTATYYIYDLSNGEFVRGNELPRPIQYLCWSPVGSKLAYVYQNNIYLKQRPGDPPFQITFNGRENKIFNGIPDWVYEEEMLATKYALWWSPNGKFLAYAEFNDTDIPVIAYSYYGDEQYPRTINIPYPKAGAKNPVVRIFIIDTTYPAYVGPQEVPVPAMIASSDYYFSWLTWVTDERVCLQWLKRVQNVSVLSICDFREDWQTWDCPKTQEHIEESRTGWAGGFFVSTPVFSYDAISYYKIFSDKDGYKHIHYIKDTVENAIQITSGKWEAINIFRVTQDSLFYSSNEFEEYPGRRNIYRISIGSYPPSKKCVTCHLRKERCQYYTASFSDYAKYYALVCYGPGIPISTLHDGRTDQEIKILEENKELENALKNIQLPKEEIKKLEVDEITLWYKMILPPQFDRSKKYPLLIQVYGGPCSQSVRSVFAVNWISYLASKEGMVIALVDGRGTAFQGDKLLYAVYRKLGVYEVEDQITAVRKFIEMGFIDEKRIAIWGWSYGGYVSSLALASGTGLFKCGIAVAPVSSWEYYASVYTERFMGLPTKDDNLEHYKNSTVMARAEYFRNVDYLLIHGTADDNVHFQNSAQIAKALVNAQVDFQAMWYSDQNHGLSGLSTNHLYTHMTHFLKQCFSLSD

[2] = Ib-3 uptake and dosimetry studies in rats; human estimated dosimetry (OLINDA/EXM 2.0); format: in vivo, Sprague-Dawley rats; conditions: estimates of human dosimetry from rat distribution data
Procedure: Uptake and dosimetry studies of (S)—N-(2-(2-cyanopyrrolidin-1-yl)-2-oxoethyl)-6-fluroquinoline-4-carboxamide (Ib-3) were performed in Sprague-Dawley rats (n=4, 2 males, 2 females) at 10, 20, 60, and 120 min. Rats were anesthetized with isoflurane, and (S)—N-(2-(2-cyanopyrrolidin-1-yl)-2-oxoethyl)-6-fluroquinoline-4-carboxamide (Ib-3) was administered via tail vein injections. At the appropriate time points, animals were euthanized, and their tissues procured for measuring radioactivity. Radioactivity was measured in a well counter and expressed as decay-corrected percentage injected dose per gram of tissue. Radiation dosimetry was calculated from the distribution data and was used to determine estimates of human dosimetry with OLINDA/EXM 2.0 software, or equivalent.
Human estimated dosimetry is given in Table 1, below, in mSv/MBq injected for each organ for males, females, and gender averaged: […]

CN(CCCN1CCN(C(=O)CN2CCN(CC(=O)O)CCN(CC(=O)O)CCN(CC(=O)O)CC2)CC1)c1ccc2nccc(C(=O)NCC(=O)N3CC(F)(F)C[C@H]3C#N)c2c1 [FAPI-46]
tumor to background ratio relative to FAP-2286 ([1]; [^68Ga] agent, early time points): 3-5 times | tumor to kidney ratio ([1]; 3 h): 21.0 | tumor to kidney ratio ([1]; 24 hours): 12.7 | tumor to kidney ratio ([1]; 72 h): 8

N#C[C@@H]1CCCN1C(=O)CNC(=O)c1ccnc2ccc([18F])cc12 [Ib-3, (S)—N-(2-(2-cyanopyrrolidin-1-yl)-2-oxoethyl)-6-[18F]fluoroquinoline-4-carboxamide]
Human estimated dosimetry: Adrenals ([2]; Females): 1.02E−02 mSv/MBq | Human estimated dosimetry: Brain ([2]; Females): 3.83E−03 mSv/MBq | Human estimated dosimetry: Breasts ([2]; Females): 1.23E−02 mSv/MBq | Human estimated dosimetry: Effective Dose ([2]; Females): 1.39E−02 mSv/MBq | Human estimated dosimetry: Esophagus ([2]; Females): 1.29E−02 mSv/MBq | Human estimated dosimetry: Eyes ([2]; Females): 6.79E−03 mSv/MBq | Human estimated dosimetry: Gallbladder Wall ([2]; Females): 1.64E−02 mSv/MBq | Human estimated dosimetry: Heart Wall ([2]; Females): 1.46E−02 mSv/MBq | Human estimated dosimetry: Kidneys ([2]; Females): 1.48E−02 mSv/MBq | Human estimated dosimetry: Left colon ([2]; Females): 2.18E−02 mSv/MBq | Human estimated dosimetry: Liver ([2]; Females): 9.11E−03 mSv/MBq | Human estimated dosimetry: Lungs ([2]; Females): 9.36E−03 mSv/MBq | Human estimated dosimetry: Osteogenic Cells ([2]; Females): 1.90E−02 mSv/MBq | Human estimated dosimetry: Ovaries ([2]; Females): 1.40E−02 mSv/MBq | Human estimated dosimetry: Pancreas ([2]; Females): 1.19E−02 mSv/MBq | Human estimated dosimetry: Rectum ([2]; Females): 1.94E−02 mSv/MBq | Human estimated dosimetry: Red Marrow ([2]; Females): 1.58E−02 mSv/MBq | Human estimated dosimetry: Right colon ([2]; Females): 1.99E−02 mSv/MBq | Human estimated dosimetry: Salivary Glands ([2]; Females): 1.34E−02 mSv/MBq | Human estimated dosimetry: Small Intestine ([2]; Females): 2.75E−02 mSv/MBq | Human estimated dosimetry: Spleen ([2]; Females): 1.00E−02 mSv/MBq | Human estimated dosimetry: Stomach Wall ([2]; Females): 1.69E−02 mSv/MBq | Human estimated dosimetry: Thymus ([2]; Females): 1.50E−02 mSv/MBq | Human estimated dosimetry: Thyroid ([2]; Females): 1.38E−02 mSv/MBq | Human estimated dosimetry: Total Body ([2]; Females): 1.49E−02 mSv/MBq | Human estimated dosimetry: Urinary Bladder Wall ([2]; Females): 3.42E−02 mSv/MBq | Human estimated dosimetry: Uterus ([2]; Females): 1.49E−02 mSv/MBq | Human estimated dosimetry: Adrenals ([2]; Gender Averaged): 9.65E−03 mSv/MBq | Human estimated dosimetry: Brain ([2]; Gender Averaged): 3.31E−03 mSv/MBq | Human estimated dosimetry: Breasts ([2]; Gender Averaged): 1.23E−02 mSv/MBq | Human estimated dosimetry: Effective Dose ([2]; Gender Averaged): 1.25E−02 mSv/MBq | Human estimated dosimetry: Esophagus ([2]; Gender Averaged): 1.21E−02 mSv/MBq | Human estimated dosimetry: Eyes ([2]; Gender Averaged): 6.09E−03 mSv/MBq | Human estimated dosimetry: Gallbladder Wall ([2]; Gender Averaged): 1.49E−02 mSv/MBq | Human estimated dosimetry: Heart Wall ([2]; Gender Averaged): 1.26E−02 mSv/MBq | Human estimated dosimetry: Kidneys ([2]; Gender Averaged): 1.52E−02 mSv/MBq | Human estimated dosimetry: Left colon ([2]; Gender Averaged): 1.99E−02 mSv/MBq | Human estimated dosimetry: Liver ([2]; Gender Averaged): 8.47E−03 mSv/MBq | Human estimated dosimetry: Lungs ([2]; Gender Averaged): 8.27E−03 mSv/MBq | Human estimated dosimetry: Osteogenic Cells ([2]; Gender Averaged): 1.84E−02 mSv/MBq | Human estimated dosimetry: Ovaries ([2]; Gender Averaged): 1.40E−02 mSv/MBq | Human estimated dosimetry: Pancreas ([2]; Gender Averaged): 1.10E−02 mSv/MBq | Human estimated dosimetry: Prostate ([2]; Gender Averaged): 1.66E−02 mSv/MBq | Human estimated dosimetry: Rectum ([2]; Gender Averaged): 1.78E−02 mSv/MBq | Human estimated dosimetry: Red Marrow ([2]; Gender Averaged): 1.43E−02 mSv/MBq | Human estimated dosimetry: Right colon ([2]; Gender Averaged): 1.82E−02 mSv/MBq | Human estimated dosimetry: Salivary Glands ([2]; Gender Averaged): 1.26E−02 mSv/MBq | Human estimated dosimetry: Small Intestine ([2]; Gender Averaged): 2.59E−02 mSv/MBq | Human estimated dosimetry: Spleen ([2]; Gender Averaged): 9.10E−03 mSv/MBq | Human estimated dosimetry: Stomach Wall ([2]; Gender Averaged): 1.55E−02 mSv/MBq | Human estimated dosimetry: Testes ([2]; Gender Averaged): 7.86E−03 mSv/MBq | Human estimated dosimetry: Thymus ([2]; Gender Averaged): 1.34E−02 mSv/MBq | Human estimated dosimetry: Thyroid ([2]; Gender Averaged): 1.29E−02 mSv/MBq | Human estimated dosimetry: Total Body ([2]; Gender Averaged): 1.37E−02 mSv/MBq | Human estimated dosimetry: Urinary Bladder Wall ([2]; Gender Averaged): 4.15E−02 mSv/MBq | Human estimated dosimetry: Uterus ([2]; Gender Averaged): 1.49E−02 mSv/MBq | Human estimated dosimetry: Adrenals ([2]; Males): 9.10E−03 mSv/MBq | Human estimated dosimetry: Brain ([2]; Males): 2.79E−03 mSv/MBq | Human estimated dosimetry: Effective Dose ([2]; Males): 1.10E−02 mSv/MBq | Human estimated dosimetry: Esophagus ([2]; Males): 1.13E−02 mSv/MBq | Human estimated dosimetry: Eyes ([2]; Males): 5.39E−03 mSv/MBq | Human estimated dosimetry: Gallbladder Wall ([2]; Males): 1.33E−02 mSv/MBq | Human estimated dosimetry: Heart Wall ([2]; Males): 1.06E−02 mSv/MBq | Human estimated dosimetry: Kidneys ([2]; Males): 1.56E−02 mSv/MBq | Human estimated dosimetry: Left colon ([2]; Males): 1.80E−02 mSv/MBq | Human estimated dosimetry: Liver ([2]; Males): 7.83E−03 mSv/MBq | Human estimated dosimetry: Lungs ([2]; Males): 7.17E−03 mSv/MBq | Human estimated dosimetry: Osteogenic Cells ([2]; Males): 1.78E−02 mSv/MBq | Human estimated dosimetry: Pancreas ([2]; Males): 1.00E−02 mSv/MBq | Human estimated dosimetry: Prostate ([2]; Males): 1.66E−02 mSv/MBq | Human estimated dosimetry: Rectum ([2]; Males): 1.62E−02 mSv/MBq | Human estimated dosimetry: Red Marrow ([2]; Males): 1.27E−02 mSv/MBq | Human estimated dosimetry: Right colon ([2]; Males): 1.65E−02 mSv/MBq | Human estimated dosimetry: Salivary Glands ([2]; Males): 1.17E−02 mSv/MBq | Human estimated dosimetry: Small Intestine ([2]; Males): 2.42E−02 mSv/MBq | Human estimated dosimetry: Spleen ([2]; Males): 8.20E−03 mSv/MBq | Human estimated dosimetry: Stomach Wall ([2]; Males): 1.40E−02 mSv/MBq | Human estimated dosimetry: Testes ([2]; Males): 7.86E−03 mSv/MBq | Human estimated dosimetry: Thymus ([2]; Males): 1.18E−02 mSv/MBq | Human estimated dosimetry: Thyroid ([2]; Males): 1.20E−02 mSv/MBq | Human estimated dosimetry: Total Body ([2]; Males): 1.25E−02 mSv/MBq | Human estimated dosimetry: Urinary Bladder Wall ([2]; Males): 4.87E−02 mSv/MBq
